From paper PMC7979524 (Pharmacological research, 2021)

Experiments:
adenosine A2A receptor = adenosine A2A receptor (Homo sapiens, UniProt P29274); type: cell-based
adenosine A2B receptor = molecular target: T1, adenosine A2B receptor (Homo sapiens, UniProt P29275); type: cell-based
T1 sequence (P29275 1-332): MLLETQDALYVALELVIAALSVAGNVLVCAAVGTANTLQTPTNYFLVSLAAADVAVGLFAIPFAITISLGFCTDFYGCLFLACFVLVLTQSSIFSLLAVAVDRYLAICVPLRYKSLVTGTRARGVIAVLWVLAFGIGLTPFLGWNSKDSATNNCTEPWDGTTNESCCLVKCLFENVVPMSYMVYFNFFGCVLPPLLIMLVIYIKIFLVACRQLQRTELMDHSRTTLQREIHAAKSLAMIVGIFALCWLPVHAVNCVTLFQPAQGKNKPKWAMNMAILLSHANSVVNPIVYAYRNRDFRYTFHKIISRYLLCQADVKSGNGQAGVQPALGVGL

adenosine A2A receptor, sequence (P29274 whole entry): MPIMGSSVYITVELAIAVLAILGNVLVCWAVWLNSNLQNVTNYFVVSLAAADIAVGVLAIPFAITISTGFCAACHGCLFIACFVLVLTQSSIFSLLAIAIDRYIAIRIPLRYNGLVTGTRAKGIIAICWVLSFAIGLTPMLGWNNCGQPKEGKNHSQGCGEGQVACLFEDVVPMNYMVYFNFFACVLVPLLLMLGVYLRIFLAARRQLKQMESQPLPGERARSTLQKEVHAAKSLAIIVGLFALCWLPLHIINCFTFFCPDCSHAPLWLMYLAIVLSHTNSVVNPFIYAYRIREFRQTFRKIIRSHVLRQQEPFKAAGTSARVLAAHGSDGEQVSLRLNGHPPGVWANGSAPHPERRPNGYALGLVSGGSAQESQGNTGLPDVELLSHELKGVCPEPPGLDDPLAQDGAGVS

`COc1cc(/C=C\C(=O)CC(=O)/C=C/c2ccc(O)c(OC)c2)ccc1O` [CTCUR, cis-trans curcumin] was tested, and the Ki (adenosine A2A receptor) was 5.1 µM and the Ki (adenosine A2B receptor) was 6.7 µM.
